Measured values: patent US9695155B2, “Herbicidal substituted pyrimidinyloxy benzene compounds” (E. I. DU PONT DE NEMOURS AND COMPANY, priority 2013, dated 2017)

How the values were obtained:
barnyardgrass [1] = test: Test A preemergence; format: in vivo, Echinochloa crus-galli; details: 0 to 100 scale where 0 is no effect and 100 is complete control; for Barnyardgrass plant response rating: 500 g ai/ha
Procedure, shortened: (§1)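 Injury scores run from 0, no effect, to 100, complete control, judged by eye against untreated plants roughly 10 days after treatment. Chemicals carried a surfactant in a non-phytotoxic solvent and went onto loam–sand soil preemergence or onto one- to two-leaf seedlings postemergence.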

kochia [2] = test: Test A preemergence; format: in vivo, Kochia scoparia; details: 0 to 100 scale where 0 is no effect and 100 is complete control; for Kochia plant response rating: 500 g ai/ha
Procedure, shortened: as §1

ragweed [3] = test: Test A preemergence; format: in vivo, Ambrosia elatior; details: 0 to 100 scale where 0 is no effect and 100 is complete control; for Ragweed plant response rating: 500 g ai/ha
Procedure, shortened: as §1

Italian ryegrass [4] = test: Test A preemergence; format: in vivo, Lolium multiflorum; details: 0 to 100 scale where 0 is no effect and 100 is complete control; for Ryegrass, Italian plant response rating: 500 g ai/ha
Procedure, shortened: as §1

giant foxtail [5] = test: Test A preemergence; format: in vivo, Setaria faberii; details: 0 to 100 scale where 0 is no effect and 100 is complete control; for Foxtail, Giant plant response rating: 500 g ai/ha
Procedure, shortened: as §1

pigweed [6] = test: Test A preemergence; format: in vivo, Amaranthus retroflexus; details: 0 to 100 scale where 0 is no effect and 100 is complete control; for Pigweed plant response rating: 500 g ai/ha
Procedure, shortened: as §1

barnyardgrass [7] = test: Test A postemergence; format: in vivo, Echinochloa crus-galli; details: for Barnyardgrass plant response rating: 125 g ai/ha
Procedure, shortened: as §1

kochia [8] = test: Test A postemergence; format: in vivo, Kochia scoparia; details: for Kochia plant response rating: 125 g ai/ha
Procedure, shortened: as §1

ragweed [9] = test: Test A postemergence; format: in vivo, Ambrosia elatior; details: for Ragweed plant response rating: 125 g ai/ha
Procedure, shortened: as §1

Italian ryegrass [10] = test: Test A postemergence; format: in vivo, Lolium multiflorum; details: for Ryegrass, Italian plant response rating: 125 g ai/ha
Procedure, shortened: as §1

giant foxtail [11] = test: Test A postemergence; format: in vivo, Setaria faberii; details: for Foxtail, Giant plant response rating: 125 g ai/ha
Procedure, shortened: as §1

pigweed [12] = test: Test A postemergence; format: in vivo, Amaranthus retroflexus; details: for Pigweed plant response rating: 125 g ai/ha
Procedure, shortened: as §1

wheat = test: Test A postemergence; format: in vivo, Triticum aestivum; details: for Wheat plant response rating: 125 g ai/ha
Procedure, shortened: as §1

corn = test: Test A postemergence; format: in vivo, Zea mays; details: for Corn plant response rating: 125 g ai/ha
Procedure, shortened: as §1

blackgrass = test: Test A postemergence; format: in vivo, Alopecurus myosuroides; details: for Blackgrass plant response rating: 125 g ai/ha
Procedure, shortened: as §1

galium = test: Test A postemergence; format: in vivo, Galium aparine; details: for Galium plant response rating: 125 g ai/ha
Procedure, shortened: as §1

rice = test: Test B flooded paddy test; format: in vivo, Oryza sativa; details: Flood, 250 g ai/ha; 0 to 100 scale where 0 is no effect and 100 is complete control
Procedure, shortened: (§2)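 Visual ratings on a 0 to 100 scale, where 100 means complete control, compared treated plants with controls after 13 to 15 days in a greenhouse. Treatment went into paddy water 3 cm deep over the soil, applied to plants at the 2-leaf stage.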

sedge, umbrella = test: Test B flooded paddy test; format: in vivo, Cyperus difformis; details: Flood, 250 g ai/ha; 0 to 100 scale where 0 is no effect and 100 is complete control
Procedure, shortened: as §2

Heteranthera limosa = test: Test B flooded paddy test; format: in vivo; details: Flood, 250 g ai/ha; 0 to 100 scale where 0 is no effect and 100 is complete control
Procedure, shortened: as §2

barnyardgrass [13] = test: Test B flooded paddy test; format: in vivo, Echinochloa crus-galli; details: Flood, 250 g ai/ha; 0 to 100 scale where 0 is no effect and 100 is complete control
Procedure, shortened: as §2

[14] = 31 g ai/ha, visual, approximately 10 days
[15] = 31 g ai/ha, 0 to 100 scale, 0 no effect, 100 complete control
[16] = 0 to 100 scale where 0 is no effect and 100 is complete control
[17] = 500 g ai/ha, 0 to 100 scale where 0 is no effect and 100 is complete control

SMILES	Plant response rating, Barnyardgrass (barnyardgrass [1]; 125 g ai/ha)	Plant response rating, Kochia (kochia [2]; 125 g ai/ha)	Plant response rating, Ragweed (ragweed [3]; 125 g ai/ha)	Plant response rating, Ryegrass, Italian (Italian ryegrass [4]; 125 g ai/ha)	Plant response rating, Foxtail, Giant (giant foxtail [5]; 125 g ai/ha)	Plant response rating, Pigweed (pigweed [6]; 125 g ai/ha)	Barnyardgrass plant response rating (barnyardgrass [7]; [16])	Kochia plant response rating (kochia [8]; [16])	Ragweed plant response rating (ragweed [9]; [16])	Ryegrass, Italian plant response rating (Italian ryegrass [10]; [16])	Foxtail, Giant plant response rating (giant foxtail [11]; [16])	Pigweed plant response rating (pigweed [12]; [16])	Wheat plant response rating (wheat; [16])	Corn plant response rating (corn; [16])	Blackgrass plant response rating (blackgrass; [16])	Galium plant response rating (galium; [16])	Plant response rating, Rice (rice)	Plant response rating, Sedge, Umbrella (sedge, umbrella)	Plant response rating, Ducksalad (Heteranthera limosa)	Plant response rating, Barnyardgrass (barnyardgrass [13])	further results
FC(F)(F)COc1cnn(-c2c(Br)cccc2Oc2ncc(Cl)cn2)c1 [Compound 128]	70	70	0	10	100	100	50	80	20	30	60	100	10	30	40	80	0	85	85	0	Plant response rating, Barnyardgrass (barnyardgrass [1]; [14]): 10; Plant response rating, Kochia (kochia [2]; [14]): 0; Plant response rating, Ragweed (ragweed [3]; [14]): 0; Plant response rating, Ryegrass, Italian (Italian ryegrass [4]; [14]): 0; Plant response rating, Foxtail, Giant (giant foxtail [5]; [14]): 60; Plant response rating, Pigweed (pigweed [6]; [14]): 100; Plant response rating, Barnyardgrass (barnyardgrass [7]; [15]): 10; Plant response rating, Kochia (kochia [8]; [15]): 50; Plant response rating, Ragweed (ragweed [9]; [15]): 0; Plant response rating, Ryegrass, Italian (Italian ryegrass [10]; [15]): 0; Plant response rating, Foxtail, Giant (giant foxtail [11]; [15]): 20; Plant response rating, Pigweed (pigweed [12]; [15]): 80; Plant response rating, Wheat (wheat; [15]): 0; Plant response rating, Corn (corn; [15]): 0; Plant response rating, Blackgrass (blackgrass; [15]): 30; Plant response rating, Galium (galium; [15]): 50
CCCc1cnc(Oc2cccc(C#N)c2-n2cc(Br)cn2)nc1 [Compound 131]	0	0	0	0	0	0	0	0	0	0	0	0	0	0	0	0	0	0	0	0	Barnyardgrass plant response rating (barnyardgrass [1]): 0; Kochia plant response rating (kochia [2]): 0; Ragweed plant response rating (ragweed [3]): 0; Ryegrass, Italian plant response rating (Italian ryegrass [4]): 0; Foxtail, Giant plant response rating (giant foxtail [5]): 0; Pigweed plant response rating (pigweed [6]): 0; Plant response rating, Barnyardgrass (barnyardgrass [7]; [17]): 0; Plant response rating, Kochia (kochia [8]; [17]): 0; Plant response rating, Ragweed (ragweed [9]; [17]): 0; Plant response rating, Ryegrass, Italian (Italian ryegrass [10]; [17]): 0; Plant response rating, Foxtail, Giant (giant foxtail [11]; [17]): 0; Plant response rating, Pigweed (pigweed [12]; [17]): 0; Plant response rating, Wheat (wheat; [17]): 0; Plant response rating, Corn (corn; [17]): 0; Plant response rating, Blackgrass (blackgrass; [17]): 0; Plant response rating, Galium (galium; [17]): 0
CS(=O)(=O)c1cccc(Oc2ncc(Cl)cn2)c1-n1cc(Br)cn1 [Compound 142]	0	0	0	0	0	0	0	0	0	0	0	0	0	0	0	0	0	0	0	0	Barnyardgrass plant response rating (barnyardgrass [1]): 0; Kochia plant response rating (kochia [2]): 50; Ragweed plant response rating (ragweed [3]): 20; Ryegrass, Italian plant response rating (Italian ryegrass [4]): 0; Foxtail, Giant plant response rating (giant foxtail [5]): 0; Pigweed plant response rating (pigweed [6]): 0; Plant response rating, Barnyardgrass (barnyardgrass [7]; [17]): 0; Plant response rating, Kochia (kochia [8]; [17]): 70; Plant response rating, Ragweed (ragweed [9]; [17]): 0; Plant response rating, Ryegrass, Italian (Italian ryegrass [10]; [17]): 0; Plant response rating, Foxtail, Giant (giant foxtail [11]; [17]): 0; Plant response rating, Pigweed (pigweed [12]; [17]): 0; Plant response rating, Wheat (wheat; [17]): 0; Plant response rating, Corn (corn; [17]): 0; Plant response rating, Blackgrass (blackgrass; [17]): 0; Plant response rating, Galium (galium; [17]): 0
CC(C)Oc1cnn(-c2c(Br)cccc2Oc2ncc(Cl)cn2)c1 [Compound 148]	50	0	0	0	70	10	30	30	20	0	40	50	0	20	10	60	0	30	40	0	Plant response rating, Barnyardgrass (barnyardgrass [1]; [14]): 0; Plant response rating, Kochia (kochia [2]; [14]): 0; Plant response rating, Ragweed (ragweed [3]; [14]): 0; Plant response rating, Ryegrass, Italian (Italian ryegrass [4]; [14]): 0; Plant response rating, Foxtail, Giant (giant foxtail [5]; [14]): 10; Plant response rating, Pigweed (pigweed [6]; [14]): 0; Plant response rating, Barnyardgrass (barnyardgrass [7]; [15]): 0; Plant response rating, Kochia (kochia [8]; [15]): 0; Plant response rating, Ragweed (ragweed [9]; [15]): 10; Plant response rating, Ryegrass, Italian (Italian ryegrass [10]; [15]): 0; Plant response rating, Foxtail, Giant (giant foxtail [11]; [15]): 10; Plant response rating, Pigweed (pigweed [12]; [15]): 50; Plant response rating, Wheat (wheat; [15]): 0; Plant response rating, Corn (corn; [15]): 0; Plant response rating, Blackgrass (blackgrass; [15]): 0; Plant response rating, Galium (galium; [15]): 20
